pIC50: −log10 of the molar value.
Test system: 361931-004-R-J1-PDC multicell spheroid viability
Assay: Anticancer human tumor 361931-004-R-J1-PDC patient-derived colon adenocarcinoma cell line growth inhibition [PI3K]
Details: for pIC50: curve of first compound; for viability, T/C: stronger effect = lower value
Text: Combinatorial screen of targeted agents with the PI3K inhibitors inavolisib, alpelisib, duvelisib, and copanlisib in multi-cell type tumor spheroids
A high-throughput screen of multi-cell type tumor spheroids was designed to identify active combinations of targeted small molecules and PI3K pathway inhibitors. Complex spheroids include a stromal component modeled by human endothelial cells (HUVEC) and fibroblasts modeled by human mesenchymal stem cells (MSCs). The concentration ranges selected for each drug and investigational agent were based upon clinically achievable concentrations if the clinical Cmax of the agent was known.
Compounds. The drugs and investigational agents: inavolisib (NSC800729), alpelisib (NSC765974), duvelisib (NSC772469), copanlisib (NSC816437), ipatasertib (NSC767898), afuresertib (NSC778305), talazoparib (NSC767125), sapanisertib (NSC764658), selumetinib (NSC741078), tovorafenib (DAY101, NSC766906), vemurafenib (NSC761431), ravoxertinib (NSC781343), sotorasib (NSC818433), MRTX1133 (NSC 836407), abemaciclib (NSC 768073), palbociclib (NSC758247), venetoclax (NSC 766270), SY5609 (NSC837396), enzalutamide (NSC755605), and darolutamide (NSC825331), were obtained from the National Cancer Institute (NCI) Developmental Therapeutics Program Chemical Repository. The FDA-approved anticancer drug set is available from the NCI Developmental Therapeutics Program. […] The stock solutions were prepared in dimethyl sulfoxide (DMSO, Sigma-Aldrich, St. Louis, MO, cat. D2650) at 800-fold the tested concentration and stored at -70 degrees C prior to their use. All drugs and investigational agents were tested over a range starting from a high concentration at or near the clinical Cmax and decreasing in half-log increments. If the clinical Cmax for an agent had not been determined, the highest concentration tested was 10 microM.
Cell Culture. All cells were maintained in an incubator at 37 degrees C and 5% CO2 with 95% humidity. The PDC lines were cultured according to standard operating procedures established by the NCI PDMR (https://pdmr.cancer.gov/sops/default.htm). All PDCs were thawed and cultured in Matrigel-coated flasks prepared with a working solution of 1X Ham's F-12 nutrient mix, without supplementation (Invitrogen, Waltham, MA, cat. 11765054), 100 U/mL penicillin-streptomycin (Invitrogen, cat. 15140122), and 2.5% Matrigel (Corning Inc., Corning, NY, cat. 354248) for the first three passages. The 354836-022-R-J1-PDC, 475296-252-R-J1-PDC, and 997726-040-R-J2-PDC lines were cultured in 6A media, which includes advanced DMEM/F-12 (Thermo Fisher Scientific, cat. 12634028), 10 mM HEPES (Thermo Fisher Scientific, cat. 15630080), 1X GlutaMAX supplement (Thermo Fisher Scientific, cat. 35050061), 0.1 mg/mL primocin (InvivoGen, San Diego, CA, cat. ant-pm-2), 10% defined fetal bovine serum, heat inactivated (HyClone Laboratories Inc., Logan, UT, cat. SH30070.03HI), 50% L-WRN conditioned media (ATCC, cat. CRL-3276), 1.25 mM N-Acetyl-L-cysteine (Sigma-Aldrich, cat. A9165), 10 mM nicotinamide (Sigma-Aldrich, cat. N0636), 1X B-27 supplement (Thermo Fisher Scientific, cat. 17504044), 1X N-2 supplement (Thermo Fisher Scientific, cat. 17502048), and 10 microM Y-27632 dihydrochloride (Tocris Bioscience, Bristol, United Kingdom, cat. 1254). The 624824-186-R-J2-PDC line was cultured in 6C/Colon 1B media, which includes all 6A media components plus 50 ng/mL human EGF recombinant protein (Thermo Fisher Scientific, cat. PHG0311). […]

[1] = second compound 0.0316 µM, first compound 0.0316 µM
[2] = second compound 0.0316 µM, first compound 0.1 µM
[3] = second compound 0.0316 µM, first compound 0.316 µM
[4] = second compound 0.0316 µM, first compound 1 µM
[5] = second compound 0.0316 µM, first compound 3.16 µM
[6] = second compound 0.0316 µM, first compound 10 µM
[7] = second compound 0.1 µM, first compound 0.0316 µM
[8] = second compound 0.1 µM, first compound 0.1 µM
[9] = second compound 0.1 µM, first compound 0.316 µM
[10] = second compound 0.1 µM, first compound 1 µM
[11] = second compound 0.1 µM, first compound 3.16 µM
[12] = second compound 0.1 µM, first compound 10 µM
[13] = second compound 0.316 µM, first compound 0.0316 µM
[14] = second compound 0.316 µM, first compound 0.1 µM
[15] = second compound 0.316 µM, first compound 0.316 µM
[16] = second compound 0.316 µM, first compound 1 µM
[17] = second compound 0.316 µM, first compound 3.16 µM
[18] = second compound 0.316 µM, first compound 10 µM
[19] = second compound 1 µM, first compound 0.0316 µM
[20] = second compound 1 µM, first compound 0.1 µM
[21] = second compound 1 µM, first compound 0.316 µM
[22] = second compound 1 µM, first compound 1 µM
[23] = second compound 1 µM, first compound 3.16 µM
[24] = second compound 1 µM, first compound 10 µM
[25] = second compound 3.16 µM, first compound 0.0316 µM
[26] = second compound 3.16 µM, first compound 0.1 µM
[27] = second compound 3.16 µM, first compound 0.316 µM
[28] = second compound 3.16 µM, first compound 1 µM
[29] = second compound 3.16 µM, first compound 3.16 µM
[30] = second compound 3.16 µM, first compound 10 µM
[31] = second compound 10 µM, first compound 0.0316 µM
[32] = second compound 10 µM, first compound 0.1 µM
[33] = second compound 10 µM, first compound 0.316 µM
[34] = second compound 10 µM, first compound 1 µM
[35] = second compound 10 µM, first compound 3.16 µM
[36] = second compound 10 µM, first compound 10 µM
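Also: spheroids exposed to agents for seven days before readout.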

C#Cc1c(F)ccc2cc(O)cc(-c3ncc4c(N5CC6CCC(C5)N6)nc(OCC56CCCN5CC(F)C6)nc4c3F)c12 (stereo not drawn) + CC(Nc1ncnc2nc[nH]c12)c1cc2cccc(Cl)c2c(=O)n1-c1ccccc1
pIC50 (second compound 0.0316 µM): < 5.00
pIC50 (second compound 0.1 µM): < 5.00
pIC50 (second compound 0.316 µM): < 5.00
pIC50 (second compound 1 µM): < 5.00
pIC50 (second compound 3.16 µM): < 5.00
pIC50 (second compound 10 µM): < 5.00
viability, T/C [1]: 98.8%
viability, T/C [2]: 105%
viability, T/C [3]: 105%
viability, T/C [4]: 102%
viability, T/C [5]: 98.9%
viability, T/C [6]: 95.1%
viability, T/C [7]: 105%
viability, T/C [8]: 103%
viability, T/C [9]: 96.8%
viability, T/C [10]: 100%
viability, T/C [11]: 104%
viability, T/C [12]: 93%
viability, T/C [13]: 106%
viability, T/C [14]: 99.7%
viability, T/C [15]: 105%
viability, T/C [16]: 100%
viability, T/C [17]: 102%
viability, T/C [18]: 93.3%
viability, T/C [19]: 97.7%
viability, T/C [20]: 98.6%
viability, T/C [21]: 100%
viability, T/C [22]: 95.2%
viability, T/C [23]: 104%
viability, T/C [24]: 84.4%
viability, T/C [25]: 104%
viability, T/C [26]: 107%
viability, T/C [27]: 103%
viability, T/C [28]: 106%
viability, T/C [29]: 107%
viability, T/C [30]: 81.9%
viability, T/C [31]: 104%
viability, T/C [32]: 99.8%
viability, T/C [33]: 91.9%
viability, T/C [34]: 91%
viability, T/C [35]: 90%
viability, T/C [36]: 79%

CC(C)NCC(C(=O)N1CCN(c2ncnc3c2C(C)CC3O)CC1)c1ccc(Cl)cc1 (stereo not drawn)
viability, T/C (compound 0.0316 µM): 97.8% [middle of 4 runs]
viability, T/C (compound 0.1 µM): 99.3% [middle of 4 runs]
viability, T/C (compound 0.316 µM): 94.3% [middle of 4 runs]
viability, T/C (compound 3.16 µM): 48.7% [middle of 4 runs]
viability, T/C (compound 10 µM): 31.1% [middle of 4 runs]

COc1c(OCCCN2CCOCC2)ccc2c3n(c(=NC(=O)c4cnc(N)nc4)nc12)CCN3
viability, T/C (compound 0.00316 µM): 102% [middle of 8 runs]
viability, T/C (compound 0.01 µM): 98.4% [middle of 8 runs]
viability, T/C (compound 0.0316 µM): 95.4% [middle of 8 runs]
viability, T/C (compound 0.1 µM): 80.6% [middle of 8 runs]
viability, T/C (compound 0.316 µM): 55.9% [middle of 8 runs]
viability, T/C (compound 1 µM): 22.8% [middle of 8 runs]
IC50 (compound alone, run of 05/09/2023): 393 nM [middle of 8 runs]

CC1(C)CCC(CN2CCN(c3ccc(C(=O)NS(=O)(=O)c4ccc(NCC5CCOCC5)c([N+](=O)[O-])c4)c(Oc4cnc5[nH]ccc5c4)c3)CC2)=C(c2ccc(Cl)cc2)C1 + CC(Nc1ccc2c(c1)OCCn1cc(N3C(=O)OCC3C(F)F)nc1-2)C(N)=O
pIC50 (second compound 0.00316 µM): 5.38
pIC50 (second compound 0.01 µM): 5.37
pIC50 (second compound 0.0316 µM): 5.39
pIC50 (second compound 0.1 µM): 5.41
pIC50 (second compound 0.316 µM): 5.47
pIC50 (second compound 1 µM): 5.48
viability, T/C (second compound 0.00316 µM, first compound 0.0316 µM): 104%
viability, T/C (second compound 0.00316 µM, first compound 0.1 µM): 98.4%
viability, T/C (second compound 0.00316 µM, first compound 0.316 µM): 112%
viability, T/C (second compound 0.00316 µM, first compound 1 µM): 101%
viability, T/C (second compound 0.00316 µM, first compound 3.16 µM): 65.6%
viability, T/C (second compound 0.00316 µM, first compound 10 µM): 2.39%
viability, T/C (second compound 0.01 µM, first compound 0.0316 µM): 93.3%
viability, T/C (second compound 0.01 µM, first compound 0.1 µM): 99.7%
viability, T/C (second compound 0.01 µM, first compound 0.316 µM): 91.5%
viability, T/C (second compound 0.01 µM, first compound 1 µM): 103%
viability, T/C (second compound 0.01 µM, first compound 3.16 µM): 67%
viability, T/C (second compound 0.01 µM, first compound 10 µM): 2.81%
viability, T/C [1]: 99.1%
viability, T/C [2]: 109%
viability, T/C [3]: 92.1%
viability, T/C [4]: 101%
viability, T/C [5]: 63%
viability, T/C [6]: 2.11%
viability, T/C [7]: 99%
viability, T/C [8]: 99.8%
viability, T/C [9]: 95.9%
viability, T/C [10]: 85.3%
viability, T/C [11]: 61.9%
viability, T/C [12]: 1.48%
viability, T/C [13]: 86.7%
viability, T/C [14]: 84.7%
viability, T/C [15]: 87.8%
viability, T/C [16]: 84.3%
viability, T/C [17]: 52.7%
viability, T/C [18]: 1.87%
viability, T/C [19]: 78%
viability, T/C [20]: 80.7%
viability, T/C [21]: 75.8%
viability, T/C [22]: 71.2%
viability, T/C [23]: 52.4%
viability, T/C [24]: 1.28%

CCCS(=O)(=O)Nc1ccc(F)c(C(=O)c2c[nH]c3ncc(-c4ccc(Cl)cc4)cc23)c1F + CC(Nc1ncnc2nc[nH]c12)c1cc2cccc(Cl)c2c(=O)n1-c1ccccc1
pIC50 (second compound 0.0316 µM): 5.28
pIC50 (second compound 0.1 µM): 5.28
pIC50 (second compound 0.316 µM): 5.25
pIC50 (second compound 1 µM): 5.28
pIC50 (second compound 3.16 µM): 5.26
pIC50 (second compound 10 µM): 5.31
viability, T/C [1]: 111%
viability, T/C [2]: 97.4%
viability, T/C [3]: 96.4%
viability, T/C [4]: 97.3%
viability, T/C [5]: 84.7%
viability, T/C [6]: 7.53%
viability, T/C [7]: 108%
viability, T/C [8]: 101%
viability, T/C [9]: 94.3%
viability, T/C [10]: 89.2%
viability, T/C [11]: 84.9%
viability, T/C [12]: 6.96%
viability, T/C [13]: 105%
viability, T/C [14]: 101%
viability, T/C [15]: 96.1%
viability, T/C [16]: 90.9%
viability, T/C [17]: 92.1%
viability, T/C [18]: 6.91%
viability, T/C [19]: 100%
viability, T/C [20]: 99.7%
viability, T/C [21]: 94.9%
viability, T/C [22]: 96.8%
viability, T/C [23]: 83.5%
viability, T/C [24]: 7.4%
viability, T/C [25]: 98.8%
viability, T/C [26]: 102%
viability, T/C [27]: 103%
viability, T/C [28]: 95.5%
viability, T/C [29]: 90.1%
viability, T/C [30]: 7.12%
viability, T/C [31]: 99.3%
viability, T/C [32]: 101%
viability, T/C [33]: 98.1%
viability, T/C [34]: 88.3%
viability, T/C [35]: 78.1%
viability, T/C [36]: 7.3%
